Results published in article PMC4669414 (Scientific Reports, 2015).
Values belong to the compound of their own block, whether it stands above or below them.

Assays:
PC9/G cells [1] = test: MTT cell growth inhibition assay in PC9/G cells; settings: 72 h; for effect on cell viability when combined with Gef + Res treatment: 3-MA 5 mM or DEVD 10 nM with Gef 1 μM + Res 40 μM
Procedure: Cell viability was measured by MTT assay. Data are shown as means ± SD of three independent experiments. […] Then, cell viability, apoptosis, autophagy and senescence were detected as described in the Materials and methods. […] Res: Resveratrol; 3-MA: 3-methyladenine; DEVD: Ac-DEVD-CHO. The antiproliferative effects of the treatments were evaluated using the MTT assay. Cells were seeded at a density of 4 × 10^3 cells/well in 96-well plates. […] Then, MTT assays were performed as described previously. […] The different drug doses were combined using constant ratios of the IC50 values calculated from the previous cytotoxicity tests. […] The effects of different drug combinations were evaluated using the CompuSyn software (Biosoft, Ferguson, MO, USA) based on the median effect model of Chou and Talay[43].

PC9/G cells [2] = test: Annexin V-FITC/PI apoptosis assay by flow cytometry; assay type: cell-based, human; settings: Gef 1 μM alone or combined with Res 40 μM, 72 h
Procedure: (§1) Figure 4 Res enhanced Gef-induced apoptosis, autophagy, G2/M phase cell cycle arrest, and senescence in PC9/G cells. […] (A) Morphological changes in PC9/G cells including nuclei condensation and fragmentation (arrow) were observed by DAPI staining under a fluorescence microscope. (B) Annexin V-FITC/PI staining assay of PC9/G cells was analysed by flow cytometry. (C) Autophagy was detected by MDC staining, and (D) fluorescence intensity was detected by flow cytometry. (E) Cells were stained with PI, and then the DNA content was analysed by flow cytometry. Sub-G1, G1, S and G2/M indicate different cell cycle phases. (F) Cells were stained for SA-β-Gal activity. The percentage of senescent cells in PC9/G cells was measured. Magnification: 200× .
For apoptosis analysis, cells were washed twice with 1× binding buffer then labelled with Annexin V and propidium iodide (PI) following the manufacturer’s instructions. The Apoptosis Analysis Kit was ordered from Tianjin Sungene Biotech (Tianjing, China). For cell cycle analysis, cells were washed twice with ice-cold PBS and fixed with 70% ethanol at −20 °C overnight. […] The analysis of the samples was performed by flow cytometry (Becton-Dickinson, San Jose, CA, USA), and the acquired data were analysed with the CellQuest software (BD Biosciences).

PC9/G cells [3] = test: SA-β-gal senescence assay; assay type: cell-based, human; settings: Gef 1 μM alone or combined with Res 40 μM, 72 h
Procedure: as §1
Cell senescence was measured following the manufacturer’s protocol of the SA-β-gal assay kit. According to the protocol, cells were fixed with 2% paraformaldehyde for 15 min at room temperature and then incubated with fresh SA-β-gal stain solution in the dark at 37 °C overnight. SA-β-gal-positive cells were quantified by counting stained and unstained cells, and the result is presented as the ratio of SA-β-gal-positive cells over the total cells counted.

HCC827 cells = test: MTT cell growth inhibition assay in HCC827 cells; assay type: cell-based; settings: Homo sapiens
Procedure: (§2) The antiproliferative effects of the treatments were evaluated using the MTT assay. Cells were seeded at a density of 4 × 10^3 cells/well in 96-well plates. […] Then, MTT assays were performed as described previously.
(§3) are shown as means ± SD of three independent experiments.

HCC827/G cells = test: MTT cell growth inhibition assay in HCC827/G cells; assay type: cell-based; settings: Homo sapiens
Procedure: as §2, §3

PC9 cells = test: MTT cell growth inhibition assay in PC9 cells; assay type: cell-based; settings: Homo sapiens, PC-9, single drug, 72 h
Procedure: Then, MTT assays were performed as described previously.

A549 cells = test: MTT cell growth inhibition assay in A549 cells; assay type: cell-based; settings: Homo sapiens
Procedure: as §2, §3

H1975 cells = test: MTT cell growth inhibition assay in H1975 cells; assay type: cell-based; settings: Homo sapiens, NCI-H1975
Procedure: as §2, §3

H1299 cells = test: MTT cell growth inhibition assay in H1299 cells; assay type: cell-based; settings: Homo sapiens, NCI-H1299
Procedure: as §2, §3

Compound: Cn1cnc(N)c2ncnc1-2 [3-MA, 3-methyladenine]
- effect on cell viability when combined with Gef + Res treatment (PC9/G cells [1]; PC9/G cells): significantly potentiated the reduction of cell viability

Compound: COc1cc2ncnc(Nc3ccc(F)c(Cl)c3)c2cc1OCCCN1CCOCC1 [Gef, Gefitinib]
- apoptosis rate (PC9/G cells [2]): 9.77 ± 2.96
- proportion of SA-β-gal-positive cells (PC9/G cells [3]): 11.4 ± 1.6%

- IC50 (PC9/G cells [1]; Homo sapiens): 33.9 ± 1.6 µM
- IC50 (HCC827 cells): 73.4 ± 4.32 µM
- IC50 (HCC827/G cells): 42.9 ± 3.54 µM
- IC50 (PC9 cells): 82.5 ± 10 µM
- IC50 (A549 cells): 72.4 ± 2.76 µM
- IC50 (H1975 cells): 74.6 ± 2.03 µM
- IC50 (H1299 cells): 88.8 ± 1.62 µM
Compound: Oc1ccc(/C=C/c2cc(O)cc(O)c2)cc1 [Res, Resveratrol]

Compound: Ac-DEVD-CHO
- toxic effect on cell viability, alone (PC9/G cells [1]; PC9/G cells, 3-MA 5 mM or DEVD 10 nM alone): no toxic effects
- effect on cell viability when combined with Gef + Res treatment (PC9/G cells [1]; PC9/G cells): no effect
